Where a SMILES comes first, the peptide text is derived from it. [ ]: non-standard residue; d: D form. Phe(4-CF3) = N[C@@H](Cc1ccc(C(F)(F)F)cc1)C(=O)O; Phe(3-Cl) = N[C@@H](Cc1cccc(Cl)c1)C(=O)O; Phe(4-Cl) = N[C@@H](Cc1ccc(Cl)cc1)C(=O)O; Pip = O=C(O)[C@@H]1CCCCN1; β3hD = NC(CC(=O)O)CC(=O)O
Experiments:
[1] = target: T1, ExoI (Escherichia coli, UniProt P04995); experiment: Isothermal titration calorimetry with ExoI; type: binding, E. coli; details: 20 mM Tris–HCl pH 8.0, 100 mM NaCl
T1 construct: His-tag (cleaved yes); host or cells: E. coli BL21 (DE3) pLysS
T1 sequence (P04995 whole entry): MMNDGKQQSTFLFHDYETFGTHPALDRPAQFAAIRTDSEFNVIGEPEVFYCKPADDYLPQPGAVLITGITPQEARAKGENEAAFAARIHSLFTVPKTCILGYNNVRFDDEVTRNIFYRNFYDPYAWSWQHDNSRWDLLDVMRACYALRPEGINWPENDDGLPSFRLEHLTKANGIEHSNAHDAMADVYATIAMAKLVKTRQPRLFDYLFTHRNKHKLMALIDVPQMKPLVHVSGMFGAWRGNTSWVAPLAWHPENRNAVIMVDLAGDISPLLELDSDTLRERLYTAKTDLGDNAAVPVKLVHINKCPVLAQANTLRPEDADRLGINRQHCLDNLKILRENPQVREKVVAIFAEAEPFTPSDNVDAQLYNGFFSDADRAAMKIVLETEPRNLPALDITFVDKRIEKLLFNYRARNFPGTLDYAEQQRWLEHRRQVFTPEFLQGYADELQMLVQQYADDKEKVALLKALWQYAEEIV
Description: (§1) Isothermal titration calorimetry (ITC) experiments were performed using a MicroCal VP-ITC titration microcalorimeter. ExoI was dialyzed extensively against the indicated buffer and cleared through centrifugation at 14,000 rpm for 15 min at 4 °C. RecO was subjected to a quick buffer exchange using an Amicon Ultra ultrafiltration device (Sigma). Protein concentrations were determined after the buffer exchange procedure.
(§2) The raw data were integrated using NITPIC [39]. The binding parameters, association equilibrium constant (KA), binding enthalpy (ΔH), and binding entropy (ΔS) were obtained by fitting the titration curves to a model of A + B = C in SEDPHAT [40]. Stoichiometry was fixed to 1:1 and the incompetent fraction was fitted for the protein concentration.

[2] = tested on: ExoI; details: 1 µM biotin-tagged peptide on streptavidin beads, lysate with 1 µM recombinant ExoI, 30 min; on-bead tryptic digestion, nanoLC-MS/MS intensities
Description: ExoI and RecO expressing cells were grown and lysed, as mentioned above. A fraction of cell lysate was used to quantify the recombinant protein content. BL21 (DE)3 pLysS cells were grown on LB media until OD600 = 2.0 and lysed using sonication. Recombinant protein containing lysates were diluted with BL21 (DE)3 pLysS lysate, setting the final concentration of the recombinant protein to 1 µM. SSB peptides (wtSSB, E1-sSSB, R2-sSSB) were immobilized onto Streptavidin DynaBeads using an N-terminal biotin tag. Then, 1 µM immobilized peptides were incubated with cell lysate for 30 min. Beads were washed with trypsin digestion buffer (20 mM TRIS pH = 8.0, 100 mM NaCl, 2 mM CaCl2). Beads were processed with an on-pellet digestion protocol. NanoLC-MS/MS analysis was carried out on a Waters ACQUITY UPLC M-Class LC system (Waters, Milford, MA, USA) coupled with a Q Exactive^TM Plus Hybrid Quadrupole-Orbitrap^TM mass spectrometer (Thermo Fisher Scientific, Waltham, MA, USA). The instrument was operated in the data-dependent mode. […]
To test the affinity improvement for E1-sSSB-Ct and R2-sSSB-Ct relative to wtSSB-Ct in a complex environment, we carried out a pull-down assay using bacterial cell lysates. […] The washed bead was digested, and tryptic peptides were detected using HPLC-MS.

[3] = target: T2, RecO (Escherichia coli, UniProt P0A7H3); experiment: Isothermal titration calorimetry with RecO; type: binding; details: 50 mM HEPES pH 7.5, 50 mM NaCl, 25% glycerol; read-out: KD, ITC, RecO
T2 construct: His-tag (TEV site) (N, cleaved yes); made in house; host or cells: E. coli Rosetta cells
T2 sequence (P0A7H3 whole entry): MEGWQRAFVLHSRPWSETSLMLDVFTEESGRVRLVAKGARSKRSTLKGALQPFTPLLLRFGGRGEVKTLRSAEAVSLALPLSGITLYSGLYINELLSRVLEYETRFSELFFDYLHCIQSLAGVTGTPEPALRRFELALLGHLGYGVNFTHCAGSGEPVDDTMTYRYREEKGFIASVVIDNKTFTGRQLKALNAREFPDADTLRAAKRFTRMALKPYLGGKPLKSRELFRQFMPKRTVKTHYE
Description: as §1, §2

| Structure (SMILES) | ΔG, ITC, ExoI [1] [kcal/mol] | −TΔS, ITC, ExoI [1] [kcal/mol] | N (stoichiometry), ITC, ExoI ([1]; 1 mM MgCl2, 4% glycerol, model A + B = C, stoichiometry fixed 1:1, incompetent fraction fitted) | ΔH, ITC, ExoI ([1]; confidence interval in brackets) | Kd ([1]; read-out: KD, ITC, ExoI (in nM), 1:1 stoichiometry) [nM] | enrichment of ExoI on immobilized peptide compared to wtSSB-Ct [2] | Kd [3] [nM] |
| --- | --- | --- | --- | --- | --- | --- | --- |
| CC(=O)N[C@@H](CCC(=O)O)C(=O)N[C@@H](Cc1ccc(C(F)(F)F)cc1)C(=O)N[C@@H](CC(=O)O)C(=O)N[C@@H](CC(=O)O)CC(=O)N[C@@H](CCC(=O)O)C(=O)N[C@@H](CC(C)C)C(=O)N1CCCC[C@H]1C(=O)N[C@@H](Cc1ccc(C(F)(F)F)cc1)C(=O)O [E1-sSSB-Ct] (Ac-E[Phe(4-CF3)]D[β3hD]EL[Pip][Phe(4-CF3)]-OH) | -10.89 | 6.46 | 1.0000 | −17.35 (−18.34–−16.43) kcal/mol | 19 | two-fold | – |
| CC[C@H](C)[C@H](NC(=O)[C@H](CC(=O)O)NC(=O)[C@H](CC(=O)O)NC(=O)[C@H](CC(=O)O)NC(=O)[C@H](Cc1ccc(Cl)cc1)NC(=O)[C@H](CC(=O)O)NC(C)=O)C(=O)N1CCC[C@H]1C(=O)N[C@@H](Cc1cccc(Cl)c1)C(=O)O [R2-sSSB-Ct] (Ac-D[Phe(4-Cl)]DDDIP[Phe(3-Cl)]-OH) | – | – | – | – | – | – | 35 |

Source: PMC10143822, “Structural Adaptation of the Single-Stranded DNA-Binding Protein C-Terminal to DNA Metabolizing Partners Guides Inhibitor Design” (Pharmaceutics, 2023)
